In brackets after ≈: the same amount, converted by molar mass. Activity calls are given as the source filed them. No cut-off for these calls is given here.
What was measured:
[1] = Selectivity index, ratio of CC50 for human Huh5-2 cells to EC50 for Hepatitis C virus; type: toxicity, cell-based, Huh-5-2; settings: read-out: Ratio CC50/EC50
[2] = test system: Hepatitis C virus; experiment: Antiviral activity against Hepatitis C virus infected in human Huh5-2 cells assessed as […] by viral RNA (luciferase) assay; type: functional, organism-based, Hepacivirus hominis; settings: Huh-5-2
[3] = test system: Huh-5-2; experiment: Cytotoxicity against human Huh5-2 cells assessed as microscopically detectable alteration in cell morphology by cytostatic determination assay; type: functional
[4] = Solubility of compound in water by HPLC-UV method; type: physicochemical
[5] = test system: Hepatitis C virus; experiment: Antiviral activity against Hepatitis C virus; type: functional, organism-based; settings: Hepacivirus hominis

| Compound | selectivity ratio [1] | EC50 [2] | CC50 [3] | solubility [4] | Activity [5] |
| --- | --- | --- | --- | --- | --- |
| CC(=O)OC[C@H]1O[C@@H](n2c(SCc3cc4cc(C)ccc4oc3=O)nc3cncnc32)[C@H](O)[C@@H]1O | 3.5 | 4.6 µM | 16 µM |  |  |
| CC1(C)O[C@@H]2[C@H](O1)[C@H](n1c(SCc3cc4ccccc4oc3=O)nc3cncnc31)O[C@@H]2CO | 3.2 | 2.8 µM | 8.8 µM |  |  |
| COc1cccc2cc(CSc3nc4cncnc4n3[C@@H]3O[C@H](CO)[C@@H](O)[C@H]3O)c(=O)oc12 | 5 | 9.5 µM | 47 µM | 224 µg/mL (≈ 474 µM) |  |
| CC(=O)OC[C@H]1O[C@@H](n2c(SCc3cc4cc(Br)cc(Br)c4oc3=O)nc3cncnc32)[C@H](OC(C)=O)[C@@H]1OC(C)=O | 1.2 | 4.9 µM | 6 µM |  |  |
| O=c1oc2c(Br)cc(Br)cc2cc1CSc1nc2cncnc2n1[C@@H]1O[C@H](CO)[C@@H](O)[C@H]1O | 6.1 | 5.9 µM | 36 µM |  |  |
| CC(=O)OC[C@H]1O[C@@H](n2c(SCc3cc4cc(Br)ccc4oc3=O)nc3cncnc32)[C@H](O)[C@@H]1O | 3.8 | 8.3 µM | 31 µM |  |  |
| O=c1oc2ccc(Cl)cc2cc1CSc1nc2cncnc2n1[C@@H]1O[C@H](CO)[C@@H](O)[C@H]1O | 8.5 | 4.3 µM | 37 µM |  |  |
| COc1cccc2cc(CSc3nc4cncnc4n3[C@@H]3O[C@H](COC(C)=O)[C@@H](O)[C@H]3O)c(=O)oc12 | 1.9 | 5.8 µM | 11 µM | 216 µg/mL (≈ 421 µM) |  |
| Nc1ncnc2c1nc(SCc1cc3ccccc3oc1=O)n2[C@@H]1O[C@H](CO)[C@@H](O)[C@H]1O | 1.7 | 28 µM | 49 µM |  |  |
| Cc1ccc2oc(=O)c(CSc3nc4cncnc4n3[C@@H]3O[C@H](CO)[C@@H](O)[C@H]3O)cc2c1 | 5.1 | 9.2 µM | 46 µM |  |  |
| CC(=O)OC[C@H]1O[C@@H](n2c(SCc3cc4cc(Br)cc(Br)c4oc3=O)nc3cncnc32)[C@H](O)[C@@H]1O | 1 | 6.8 µM | 7 µM |  |  |
| CC(=O)OC[C@H]1O[C@@H](n2c(SCc3cc4ccccc4oc3=O)nc3cncnc32)[C@H](O)[C@@H]1O | < 0.98 | > 8.9 µM | 8.7 µM |  |  |
| COc1cccc2cc(CSc3nc4cncnc4n3[C@@H]3O[C@H](CO)[C@@H]4OC(C)(C)O[C@@H]43)c(=O)oc12 | 5.2 | 1.6 µM | 8.4 µM | 87.7 µg/mL (≈ 171 µM) |  |
| CC1(C)O[C@@H]2[C@H](O1)[C@H](n1c(SCc3cc4cc(Br)ccc4oc3=O)nc3cncnc31)O[C@@H]2CO | 3.6 | 2.1 µM | 7.5 µM |  |  |
| OC[C@H]1O[C@@H](n2c(S)nc3cncnc32)[C@H](O)[C@@H]1O |  | > 176 µM | > 176 µM |  |  |
| CC(=O)OC[C@H]1O[C@@H](n2c(SCc3cc4cc(Cl)ccc4oc3=O)nc3cncnc32)[C@H](OC(C)=O)[C@@H]1OC(C)=O | 2.4 | 3.2 µM | 7.5 µM |  |  |
| Nc1ncnc2c1nc(SCc1cc3cc(Br)ccc3oc1=O)n2[C@@H]1O[C@H](CO)[C@@H](O)[C@H]1O | 1.5 | 27 µM | 41 µM |  |  |
| CC(=O)OC[C@H]1O[C@@H](n2c(SCc3cc4cc(F)ccc4oc3=O)nc3cncnc32)[C@H](OC(C)=O)[C@@H]1OC(C)=O | 1.2 | 6.1 µM | 7.6 µM |  |  |
| COc1cccc2cc(CSc3nc4c(N)ncnc4n3[C@@H]3O[C@H](CO)[C@@H](O)[C@H]3O)c(=O)oc12 | > 2.4 | 43 µM | > 103 µM |  |  |
| CC(=O)OC[C@H]1O[C@@H](n2c(SCc3cc4cc(C)ccc4oc3=O)nc3cncnc32)[C@H](OC(C)=O)[C@@H]1OC(C)=O | 2.1 | 7.7 µM | 16 µM |  |  |
| O=c1oc2ccccc2cc1CSc1nc2cncnc2n1[C@@H]1O[C@H](CO)[C@@H](O)[C@H]1O | 9.1 | 5.5 µM | 50 µM |  |  |
| COc1cccc2cc(CSc3nc4cncnc4[nH]3)c(=O)oc12 | 4.8 |  | 94 µM | 31.6 µg/mL (≈ 92.8 µM) |  |
| CC(=O)OC[C@H]1O[C@@H](n2c(SCc3cc4ccccc4oc3=O)nc3cncnc32)[C@H](OC(C)=O)[C@@H]1OC(C)=O | 5.9 | 6.6 µM | 39 µM |  |  |
| CC(=O)OC[C@H]1O[C@@H](n2c(=S)[nH]c3cncnc32)[C@H](OC(C)=O)[C@@H]1OC(C)=O |  | > 122 µM | > 122 µM |  | inactive |
| Nc1ncnc2c1nc(SCc1cc3cc(Br)cc(Br)c3oc1=O)n2[C@@H]1O[C@H](CO)[C@@H](O)[C@H]1O | 1.4 | 26 µM | 36 µM |  |  |
| CC(=O)OC[C@H]1O[C@@H](n2c(=S)n([C@@H]3O[C@H](COC(C)=O)[C@@H](OC(C)=O)[C@H]3OC(C)=O)c3ncncc32)[C@H](OC(C)=O)[C@@H]1OC(C)=O | > 1.1 | 66 µM | > 75 µM |  | inactive |
| O=c1oc2ccc(F)cc2cc1CSc1nc2cncnc2n1[C@@H]1O[C@H](CO)[C@@H](O)[C@H]1O | 4.9 | 7.4 µM | 36 µM |  |  |
| CC(=O)OC[C@H]1O[C@@H](n2c(SCc3cc4cc(Br)ccc4oc3=O)nc3cncnc32)[C@H](OC(C)=O)[C@@H]1OC(C)=O | 1.4 | 4.9 µM | 6.7 µM |  |  |
| CC(=O)OC[C@H]1O[C@@H](n2c(SCc3cc4cc(F)ccc4oc3=O)nc3cncnc32)[C@H](O)[C@@H]1O | 2.3 | 3.8 µM | 8.6 µM |  |  |
| COc1cccc2cc(CSc3nc4cncnc4n3[C@@H]3O[C@H](COC(C)=O)[C@@H](OC(C)=O)[C@H]3OC(C)=O)c(=O)oc12 | 3.3 | 2.3 µM | 7.5 µM | 78.3 µg/mL (≈ 131 µM) |  |

— ChEMBL document CHEMBL1764981, “Coumarin-purine ribofuranoside conjugates as new agents against hepatitis C virus” (J Med Chem, 2011)
